# Experimental data taken from patent US9828605B2, “Composition for enhancing radiation sensitivity comprising PI4K isozyme inhibitor” (Seoul National University R&DB Foundation, priority 2015, dated 2017).
# How the values were obtained:
# BT-474 cell line = test: colony formation assay after antiviral drug treatment and irradiation, BT-474; type: cell-based, human; conditions: drug concentrations determined as 100 nM, 200 nM and 30 μM, FIGS. 5 and 6
# Experimental: (§1) First, after 48 hours of siRNA transduction of Example 2, the cells were collected and 500 with 0 Gy, 1,000 with 2 Gy, 2,000 with 4 Gy, and 4,000 with 6 Gy cells were cultured on a plate according to a radiation dose. After it was checked that the cells were stably attached to a culture dish, radiation was treated with a radiation dose rate of 2.46 Gy per minute by 4 MV X-ray by using a linear accelerator, and the cells were cultured for about 14 days to 23 days until cell colonies were checked with the naked eye. The formed colonies were fixed with 100% methanol and then dyed with 0.5% crystal violet, and surviving fraction was calculated by counting the number of colonies including at least 50 cells. In the surviving fraction, an average of the number of cell colonies in three wells for each radiation dose was shown according to a linear-quadratic model using Kaleidagraph version 3.51 (Synergy Software, Reading, Pa.), and the result was illustrated in FIG. 2.
# (§2) As the hepatitis anti-C virus drug, simeprevir (Olysio) (Janssen Pharmaceutica), sofosbuvir (sovaldi) (Gilead), and daclatasvir (Daklinza) (Bristol-Myers Squibb) were used. […]
# (§3) After the determined amount of drug was treated in the brain tumor and breast cancer cell lines, the colony formation assay was performed by the same method as Experimental Example 1, and the result was illustrated in FIGS. 5 to 7.
# U251 cell line = test: colony formation assay after antiviral drug treatment and irradiation, U251; type: cell-based; conditions: drug concentrations determined as 100 nM, 200 nM and 30 μM, FIGS. 5 to 7
# Experimental: as §1, §2, §3
# [1] = tested on: phosphorylation of PKC and AKT; test: immune blotting of phosphorylation after simeprevir treatment, U251; type: cell-based; conditions: 24-72 hours of drug treatment, FIG. 5 right panel
# Experimental: Simeprevir used as a hepatitis anti-C virus drug was treated and phosphorylation was verified through immune blotting after 24-72 hours of drug treatment. The result was illustrated in FIG. 5 (right panel).
# [2] = tested on: human breast cancer cell lines BT-474; test: tumor xenograft model in vivo with radiation irradiation; parameters: species or system BALB/c athymic nude mouse; conditions: simeprevir 10 mg/Kg to peritoneal cavity three times a week for two weeks + radiation 9 Gy (3 Gy three times a week); compared with other groups; FIG. 9
# Experimental: In order to form a tumor xenograft model in vivo, 5×10^6 human breast cancer cell lines BT-474 were injected to a hind leg of a BALB/c athymic nude mouse. After 3 weeks, it was verified that the tumor was uniformly grown, and the mouse was randomly assigned to four groups of a control group, a simeprevir group, a radiation irradiation group, and a simeprevir+radiation irradiation group. The simeprevir was administrated to peritoneal cavity with a concentration of 10 mg/Kg three times a week for two weeks, and the radiation was irradiated with 9 Gy three times a week by 3 Gy by electron beam of 6 MeV while covering 1 cm bolus. After the entire treatment was finished, the size of the tumor was measured at an interval of about 1 week, and the result was illustrated in FIG. 9.
smiles,measurement,setting,value
CC(C)OC(=O)[C@H](C)N[P@](=O)(OC[C@H]1O[C@@H](n2ccc(=O)[nH]c2=O)[C@](C)(F)[C@@H]1O)Oc1ccccc1 [sofosbuvir],sensitivity to radiation (colony formation assay),BT-474 cell line,enhanced
same,sensitivity to radiation (colony formation assay),U251 cell line,enhanced
COc1ccc2c(O[C@@H]3C[C@H]4C(=O)N[C@]5(C(=O)NS(=O)(=O)C6CC6)C[C@H]5/C=C\CCCCN(C)C(=O)[C@@H]4C3)cc(-c3nc(C(C)C)cs3)nc2c1C [simeprevir],sensitivity to radiation (colony formation assay),BT-474 cell line,enhanced
same,phosphorylation of AKT,[1],reduction
same,phosphorylation of PKC,[1],reduction
same,growth of the tumor,[2],significantly inhibited
same,sensitivity to radiation (colony formation assay),U251 cell line,enhanced
